melting point: 82 to 86 °C
Structure (SMILES): CN1C(=O)[C@@H](NC(=O)C2(CNC3CCCCC3)CCCC2)N=C(c2ccccc2)c2ccccc21

Reference: patent publication US6713476B2, “Substituted cycloalkyls as inhibitors of a beta protein production” (Dupont Pharmaceuticals Company, priority 2000, dated 2004)
